This is an account of results in EP4714441A1, “COMPOSITION FOR PREVENTING OR ALLEVIATING HEPATIC DYSFUNCTION” (KIRIN HOLDINGS KABUSHIKI KAISHA, priority 2023, dated 2025).

Assay type in all cases: cell-based, human
In data set [1] the test system is HepG2 cells. As to the kind of experiment: Cell viability by MTT assay in HepG2 cells with hepatocyte damage induced by hydrogen peroxide. As to conditions: HepG2 cells damaged by hydrogen peroxide; result in words. How it is done:
(§1) A human liver cancer-derived cell line (HepG2: HB-8065™, Lot No. 70029112) was obtained from the American Type Culture Collection, and Dulbecco's Modified Eagle Medium (Thermo Fisher Scientific K.K.) containing 10% FBS was used as the basal medium. The cells were cultured in a 37°C, 5% CO2 incubator, and cells passaged for 17 to 22 generations were used for the experiments.
(§2) A cell suspension adjusted to an initial cell concentration of 2 x 10^4 cells/mL was seeded at 0.15 mL into a 96-well plate (Thermo Fisher Scientific K.K.).
After 20 hours of culture from seeding, alpha-lipoic acid trisulfide (LASSS) or alpha-lipoic acid trisulfide choline ester (LASSS-CE) was added to the medium in groups with a final concentration of 0.025 mM or 0.05 mM. Separately, a group to which only the solvent for LASSS or LASSS-CE (phosphate-buffered saline (PBS) containing 4% DMSO (FUJIFILM Wako Pure Chemical Corporation)) was added was designated as the solvent-added group. […] After culturing for 2 hours following the addition of hydrogen peroxide solution or PBS, cell viability was measured by the MTT assay to evaluate the extent of hepatocyte injury. […]
(In general: Tetrazolium dyes change colour on reduction, which living cells bring about.)

Data set [2] can be described thus: Cell viability by MTT assay in HepG2 cells without hydrogen peroxide (effect on cell proliferation itself). As to conditions: human, hepg2 cells, PBS instead of hydrogen peroxide, control group = 100; for viability at 25 µM: Sample-added group (0.025 mM); for viability at 50 µM: Sample-added group (0.05 mM). How it is done:
as §1, §2
(§3) After 20 hours of culture from seeding, alpha-lipoic acid trisulfide (LASSS) or alpha-lipoic acid trisulfide choline ester (LASSS-CE) was added to the medium in groups with a final concentration of 0.025 mM or 0.05 mM. Separately, a group to which only the solvent for LASSS or LASSS-CE (phosphate-buffered saline (PBS) containing 4% DMSO (FUJIFILM Wako Pure Chemical Corporation)) was added was designated as the solvent-added group. After 4 hours of culture following the sample addition, the medium of the above sample-added groups and the solvent-added group was replaced with a medium (not containing LASSS or LASSS-CE) to which hydrogen peroxide solution (FUJIFILM Wako Pure Chemical Corporation) had been added to a final concentration of 0.1 mM, thereby inducing hepatocyte damage. A group in which the same amount of PBS was added instead of hydrogen peroxide solution to the solvent-added group was designated as the control group. After culturing for 2 hours following the addition of hydrogen peroxide solution or PBS, cell viability was measured by the MTT assay to evaluate the extent of hepatocyte injury. In the table, SD represents standard deviation.
(§4) Furthermore, to evaluate the effect of LASSS and LASSS-CE on cell proliferation itself, a similar experiment was conducted by replacing the addition of hydrogen peroxide solution with the addition of the same amount of PBS, and the cell viability was measured by the MTT assay method.

Data set [3] concerns HepG2 cells. The description is as above. As to conditions: without hydrogen peroxide solution; result in words. How it is done:
as §1, §2, §3, §4

In the case of `O=C(O)CCCCC1CCSSS1` (stereo not drawn) [LASSS, alpha-lipoic acid trisulfide], the “cell viability compared to the hydrogen peroxide-added group” value in data set [1] was “an improvement in cell viability was confirmed”. In data set [2], the viability (in general, a read-out of living cells in per cent, often relative to untreated cells) at 25 µM was 102% and the viability at 50 µM was 102%. In addition, the “effect on the proliferation of HepG2 cells” value in data set [3] is recorded as “did not affect the proliferation of HepG2 cells”.
For `C[N+](C)(C)CCOC(=O)CCCCC1CCSSS1` (stereo not drawn) [LASSS-CE, alpha-lipoic acid trisulfide choline ester], in data set [1], the “cell viability compared to the hydrogen peroxide-added group” value is “an improvement in cell viability was confirmed”. In data set [2], the viability at 25 µM was found to be 109% and the viability at 50 µM is 106%. For the same compound, in data set [3], the “effect on the proliferation of HepG2 cells” value is on record as “did not affect the proliferation of HepG2 cells”.
